Converted amounts (≈) assume the structure as drawn.

Series [1] is described as follows: solubility observed on preparing the oral dose in normal saline. Type of series: physicochemical. The note with it: 20 mg/kg oral dose in 20 mL of warm normal saline. The procedure: (§1) Three groups of rabbits (n = 4, each) received 20 mg/kg oral dose of each compound. […] Accurately weighted amounts of each compound were dissolved/suspended in 20 mL of warm normal saline using an ultrasound water bath. […] The solutions/suspensions of the three compounds were administered orally to the rabbits using a pediatric feeding tubes. After oral administration of each compound, serial blood samples were obtained through the IV catheter, over a period of 10 h after administration. Plasma was obtained from blood by centrifugation, and samples were kept at −80 °C until analysis.

Series [2] can be described thus: blood to plasma partition. The class given is in vitro ADME. The note with it: heparinized whole blood, rabbit blood, 37 °C, n = 3. The procedure:
The spiked blood samples were kept at 37 °C in a shaking water bath for one hour, and plasma was then obtained by centrifugation at 37 °C. Aliquots of about 400 μL, of each plasma sample were kept frozen at −80 °C until analysis. The blood to plasma distribution ratio was determined from the ratio of the nominal total whole blood concentration and the measured plasma concentration for each compound.

A short description of series [3]: pharmacokinetics after single oral administration as suspension. Type of series: in vivo. The note with it: New Zealand White, plasma, rabbit, 20 mg/kg, n = 4. Here is the method: The pediatric feeding tube was pushed until it reached the stomach.
as §1
The pharmacokinetic parameters for each of the three compounds including half-life (t1/2), volume of distribution (Vd), elimination rate constant (k), area under the plasma concentration-time curve (AUC), total body clearance (CLT), renal clearance (CLR), and oral bioavailability (F) were determined using the general pharmacokinetic parameter calculation procedures using PKPD tools for Microsoft Excel. The obtained pharmacokinetic parameters for each compound were compared using Statistical Package of Social Sciences (SPSS) to determine the difference in the pharmacokinetic behavior for the three compounds.

A short description of series [4]: plasma protein binding (ultrafiltration). The class given is in vitro ADME. Conditions: for fraction unbound at 1 h, 250 μg/L / fraction unbound at 1 h, 1000 μg/L / fraction unbound at 1 h: rabbit, plasma; for fraction unbound at 1 h, 250 μg/L / fraction unbound at 1 h, 1000 μg/L: n = 3, read-out: Plasma protein binding (% bound) (converted). The procedure: The remaining volume of the plasma samples obtained by centrifugation in the blood to plasma partition experiment, about 600 μL, was immediately placed in disposable ultrafiltration devices (Centrifree®, EMD Millipore Corp., Billerica, MA, USA), and centrifuged in a temperature controlled centrifuge at 37 °C. The ultrafiltrate collected in the ultrafiltration device cup was stored at −20 °C until analysis. The plasma protein binding for the three compounds in rabbit plasma was determined in triplicates at two different concentrations. The total (free + bound) plasma concentration is the concentration in the plasma samples obtained by centrifugation in the blood to plasma partition experiment, while the free (unbound) concentration is the concentration in the ultrafiltrate. The percentage bound was calculated from the free concentration and the corresponding total concentration according to Equation (1). (1) % Bound = Total concentration−Free concentration/Total concentration × 100

In another series the test system is Heamophilus influenzae. On the set-up: method as in PMID 12467705, PMID 15911326, PMID 17140706, PMID 19376613, PMID 23811087. Conditions: unit printed only for the neighbouring MICs of the sentence; cited from earlier work.

The term AUC denotes concentration integrated over time. A high value points to high exposure. One may read the Cmax as the maximum level reached in the sampled fluid or tissue. For orientation: Tmax means the time at which the peak concentration occurs. In general, bioavailability refers to the share of a dose that reaches the circulation, judged against a reference dose that is usually intravenous. On to `O=C1O[C@@H](Cn2ccnn2)CN1c1ccc(N2CCN(C(=O)C(F)(F)F)CC2)c(F)c1` [PH051], for which, in series [1], the “solubility (observed)” value was “least water-soluble of the three compounds”. Besides, in series [2], the blood plasma ratio at 1 h, 250 μg/L is 0.772 ± 0.022 and the blood plasma ratio at 1 h, 1000 μg/L amounted to 0.833 ± 0.015. Further, in series [3], the AUC amounted to 369 ± 378 ng·h/mL, the peak concentration (Cmax) was 69.7 ± 14.8 ng/mL, the Tmax is 1 h and the bioavailability amounted to 4.73%. The plasma protein binding in series [4] (rabbit plasma, over both concentrations) was found to be 91%. In addition, in series [4], the fraction unbound at 1 h, 250 μg/L was 0.089 and the fraction unbound at 1 h, 1000 μg/L was 0.091 ± 0.0019. In addition, the fraction unbound at 1 h in series [4] (over both concentrations) lay in the range of 0.09 to 0.1. Also, the MIC in the series with Heamophilus influenzae is 64 µg/mL (≈ 145 µM).
For the compound `O=C1O[C@@H](Cn2ccnn2)CN1c1ccc(N2CCOCC2)c(F)c1` [PH027], in series [2], the blood plasma ratio at 1 h, 250 μg/L worked out at 0.96 ± 0.032 and the blood plasma ratio at 1 h, 1000 μg/L worked out at 1.01 ± 0.021. In series [3], the AUC worked out at 5010 ± 2430 ng·h/mL, the maximum concentration (Cmax) is 1620 ± 820 ng/mL, the Tmax is 1 h and the bioavailability is 22.1%. In addition, in series [4], the fraction unbound at 1 h, 250 μg/L is 0.613 and the fraction unbound at 1 h, 1000 μg/L is 0.622. For the same compound, the fraction unbound at 1 h in series [4] (over both concentrations) was in the range of 0.62 to 0.63.
